IC50 data for 3 compounds are collected here from patent US7501410B2, “Methods of inhibiting BTK and SYK protein kinases” (Roche Palo Alto LLC, priority 2006, dated 2009).

The target in experiment [1] is T1, Bruton's Tyrosine Kinase (Btk) (Homo sapiens, UniProt Q06187).
T1 construct: 5-10 nM Btk enzyme (His-tagged, full-length); His tag
As to the kind of experiment: Determination of IC50 of Bruton's Tyrosine Kinase (Btk) inhibition, 33P filtration assay. It counts as biochemical. The following applies: His-tagged full-length Btk, 100 μM ATP. The gist of the method:
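Full-length His-tagged Btk (5-10 nM) preincubated 10 min at RT with compounds, then 30 min at 30° C with 30 μM biotinylated SH2 peptide, 100 μM ATP plus ^33P ATP, Mn/Mg in imidazole buffer pH 7.2. Product captured on streptavidin beads, counted by scintillation; 10-point half-log IC50 from 100 μM, background without substrate.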

The subject of a further experiment is Ramos cells. As to the kind of experiment: Inhibition of B-cell activation, B cell FLIPR assay in Ramos cells. Format: cell-based. The following applies: Homo sapiens, anti-IgM stimulated intracellular calcium increase. The source says: Inhibition of B-cell Activation—B Cell FLIPR Assay in Ramos Cells
The B cell FLIPR assay is a cell based functional method of determining the effect of potential inhibitors of the intracellular calcium increase from stimulation by an anti-IgM antibody. Ramos cells (human Burkitt's lymphoma cell line. ATCC-No. CRL-1596) were cultivated in Growth Media (described below). One day prior to assay, Ramos cells were resuspended in fresh growth media (same as above) and set at a concentration of 0.5×10^6/mL in tissue culture flasks. On day of assay, cells were counted and set at a concentration of 1×10^6/mL in growth media supplemented with 1 μM FLUO-3 AM(TefLabs Cat-No. 0116, prepared in anhydrous DMSO and 10% Pluronic acid) in a tissue culture flask, and incubated at 37° C. (4% CO2) for 1 h. To remove extracellular dye, cells were collected by centrifugation (5 min, 1000 rpm), resuspended in FLIPR buffer (described below) at 1×10^6 cells/mL and then dispensed into 96-well poly-D-lysine coated black/clear plates (BD Cat-No. 356692) at 1×10^5 cells per well. Test compounds at seven concentrations ranging from 100 μM to 0.03 μM were added, and allowed to incubate with cells for 30 min at RT. Ramos cell Ca^2+ signaling was stimulated by the addition of 10 μg/mL anti-IgM (Southern Biotech, Cat-No. 2020-01) and measured on a FLIPR (Molecular Devices, captures images of 96 well plates using a CCD camera with an argon laser at 480 nm excitation).
Growth Medium: RPMI 1640 medium with L-glutamine (Invitrogen, Cat-No. 61870-010), 10% Fetal Bovine Serum (FBS, Summit Biotechnology Cat-No. FP-100-05); 1 mM Sodium Pyruvate (Invitrogen Cat. No. 11360-070).
FLIPR buffer: HBSS (Invitrogen, Cat-No. 141175-079),2 mM CaCl2 (Sigma Cat-No. C-4901), HEPES (Invitrogen, Cat-No. 15630-080), 2.5 mM Probenecid (Sigma, Cat-No. P-8761), 0.1% BSA (Sigma, Cat-No. A-7906), 11 mM Glucose (Sigma, Cat-No. G-7528).
In order to achieve the highest final assay concentration of 100 μM, 24 μL of 10 mM compound stock solution (made in DMSO) is added directly to 576 μL of FLIPR buffer. The test compounds are diluted in FLIPR Buffer (using Biomek 2000 robotic pipettor) resulting in the following dilution scheme: vehicle, 1.00×10^−4 M, 1.00×10^−5, 3.16×10^−6, 1.00×10^−6, 3.16×10^−7, 1.00×10^−7, 3.16×10^−8.
Intracellular increases in calcium were reported using a max-min statistic (subtracting the resting baseline from the peak caused by addition of the stimulatory antibody using a Molecular Devices FLIPR control and statistic exporting software. The IC50 was determined using a non-linear curve fit (GraphPad Prism software). Representative results are in Table 1.
(A change in cytosolic calcium serves as a functional read-out for many receptors and channels.)

T1 sequence (Q06187 whole entry): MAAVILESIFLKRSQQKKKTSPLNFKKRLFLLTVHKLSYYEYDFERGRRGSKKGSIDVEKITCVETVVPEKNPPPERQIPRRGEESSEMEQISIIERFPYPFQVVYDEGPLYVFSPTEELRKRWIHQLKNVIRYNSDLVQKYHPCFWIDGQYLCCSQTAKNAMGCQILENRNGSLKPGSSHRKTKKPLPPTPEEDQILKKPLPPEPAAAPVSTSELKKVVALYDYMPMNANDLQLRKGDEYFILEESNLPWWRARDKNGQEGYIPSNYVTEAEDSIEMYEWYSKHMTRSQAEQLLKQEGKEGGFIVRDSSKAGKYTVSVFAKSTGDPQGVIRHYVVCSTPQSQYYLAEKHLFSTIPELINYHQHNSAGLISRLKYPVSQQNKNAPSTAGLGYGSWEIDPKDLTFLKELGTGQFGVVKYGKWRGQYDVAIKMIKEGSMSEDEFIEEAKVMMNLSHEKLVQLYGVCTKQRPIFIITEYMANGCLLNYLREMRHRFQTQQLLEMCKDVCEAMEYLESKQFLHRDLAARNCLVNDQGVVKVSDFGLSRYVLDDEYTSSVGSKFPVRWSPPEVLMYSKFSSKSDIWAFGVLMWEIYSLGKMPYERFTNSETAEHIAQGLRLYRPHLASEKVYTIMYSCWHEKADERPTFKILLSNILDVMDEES

Consider `Cc1cc(Nc2nn(C(C)C)c(=O)c3cc(N4CCOCC4)ccc23)n[nH]1` [Example F-1, 2-Isopropyl-4-(5-methyl-1H-pyrazol-3-ylamino)-7-morpholino-2H-phthalazin-1-one], for which the results for the IC50 (in experiment [1]; with Ramos cells) were 0.275 µM and 1.2 µM, respectively.

On to `Cc1cc(Nc2nn(C(C)C)c(=O)c3cc(N4CCN(C)CC4)ccc23)[nH]n1` [Example F-5, 2-Isopropyl-7-(4-methyl-piperazin-1-yl)-4-(5-methyl-2H-pyrazol-3-ylamino)-2H-phthalazin-1-one], for which the IC50 – broadly, the concentration that gives 50% inhibition – in experiment [1] is 0.102 µM; in the experiment on Ramos cells, 0.41 µM.

As to `Cc1cc(Nc2nn(C(C)C)c(=O)c3cc(OCCN(C)C)ccc23)n[nH]1` [Example ZD-5, 7-(2-Dimethylamino-ethoxy)-2-isopropyl-4-(5-methyl-1H-pyrazol-3-ylamino)-2H-phthalazin-1-one], the 50% inhibitory concentration (IC50) worked out at 0.186 µM in experiment [1] and 0.575 µM in the experiment with Ramos cells.
